In patent US10800791B2, “Triazole ACC inhibitors and uses thereof” (Gilead Apollo, LLC, priority 2015, dated 2020):
Values after ≈ are worked out from the molar mass of the structure shown. Read-outs that look alike come from different tables or passages of the source.

Experiments:
[1] = system: Botrtyis cinerea (Bc); test: Growth inhibition assay of fungal pathogens, Bc; format: cell-based; conditions: 48 h, read-out: Concentration at 90% Inhibition Bc, Botrtyis cinerea
How it was run: (§1)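 Percent inhibition derived at 48 hours from OD600 and visual scores versus 2% DMSO control, with media+DMSO blank as background. Spore inocula in 17% V8 medium were sized from 48 h growth curves; compounds tested at final 50/10/2 or 2/0.4/0.08 ppm.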

[2] = biological target: human (hACC2) (Homo sapiens, UniProt O00763); test: In vitro ACC inhibition assay (ADP-Glo), hACC2; format: biochemical; conditions: 5 nM ACC2, 20 μM ATP, 20 μM acetyl-CoA
human (hACC2), sequence (O00763 whole entry): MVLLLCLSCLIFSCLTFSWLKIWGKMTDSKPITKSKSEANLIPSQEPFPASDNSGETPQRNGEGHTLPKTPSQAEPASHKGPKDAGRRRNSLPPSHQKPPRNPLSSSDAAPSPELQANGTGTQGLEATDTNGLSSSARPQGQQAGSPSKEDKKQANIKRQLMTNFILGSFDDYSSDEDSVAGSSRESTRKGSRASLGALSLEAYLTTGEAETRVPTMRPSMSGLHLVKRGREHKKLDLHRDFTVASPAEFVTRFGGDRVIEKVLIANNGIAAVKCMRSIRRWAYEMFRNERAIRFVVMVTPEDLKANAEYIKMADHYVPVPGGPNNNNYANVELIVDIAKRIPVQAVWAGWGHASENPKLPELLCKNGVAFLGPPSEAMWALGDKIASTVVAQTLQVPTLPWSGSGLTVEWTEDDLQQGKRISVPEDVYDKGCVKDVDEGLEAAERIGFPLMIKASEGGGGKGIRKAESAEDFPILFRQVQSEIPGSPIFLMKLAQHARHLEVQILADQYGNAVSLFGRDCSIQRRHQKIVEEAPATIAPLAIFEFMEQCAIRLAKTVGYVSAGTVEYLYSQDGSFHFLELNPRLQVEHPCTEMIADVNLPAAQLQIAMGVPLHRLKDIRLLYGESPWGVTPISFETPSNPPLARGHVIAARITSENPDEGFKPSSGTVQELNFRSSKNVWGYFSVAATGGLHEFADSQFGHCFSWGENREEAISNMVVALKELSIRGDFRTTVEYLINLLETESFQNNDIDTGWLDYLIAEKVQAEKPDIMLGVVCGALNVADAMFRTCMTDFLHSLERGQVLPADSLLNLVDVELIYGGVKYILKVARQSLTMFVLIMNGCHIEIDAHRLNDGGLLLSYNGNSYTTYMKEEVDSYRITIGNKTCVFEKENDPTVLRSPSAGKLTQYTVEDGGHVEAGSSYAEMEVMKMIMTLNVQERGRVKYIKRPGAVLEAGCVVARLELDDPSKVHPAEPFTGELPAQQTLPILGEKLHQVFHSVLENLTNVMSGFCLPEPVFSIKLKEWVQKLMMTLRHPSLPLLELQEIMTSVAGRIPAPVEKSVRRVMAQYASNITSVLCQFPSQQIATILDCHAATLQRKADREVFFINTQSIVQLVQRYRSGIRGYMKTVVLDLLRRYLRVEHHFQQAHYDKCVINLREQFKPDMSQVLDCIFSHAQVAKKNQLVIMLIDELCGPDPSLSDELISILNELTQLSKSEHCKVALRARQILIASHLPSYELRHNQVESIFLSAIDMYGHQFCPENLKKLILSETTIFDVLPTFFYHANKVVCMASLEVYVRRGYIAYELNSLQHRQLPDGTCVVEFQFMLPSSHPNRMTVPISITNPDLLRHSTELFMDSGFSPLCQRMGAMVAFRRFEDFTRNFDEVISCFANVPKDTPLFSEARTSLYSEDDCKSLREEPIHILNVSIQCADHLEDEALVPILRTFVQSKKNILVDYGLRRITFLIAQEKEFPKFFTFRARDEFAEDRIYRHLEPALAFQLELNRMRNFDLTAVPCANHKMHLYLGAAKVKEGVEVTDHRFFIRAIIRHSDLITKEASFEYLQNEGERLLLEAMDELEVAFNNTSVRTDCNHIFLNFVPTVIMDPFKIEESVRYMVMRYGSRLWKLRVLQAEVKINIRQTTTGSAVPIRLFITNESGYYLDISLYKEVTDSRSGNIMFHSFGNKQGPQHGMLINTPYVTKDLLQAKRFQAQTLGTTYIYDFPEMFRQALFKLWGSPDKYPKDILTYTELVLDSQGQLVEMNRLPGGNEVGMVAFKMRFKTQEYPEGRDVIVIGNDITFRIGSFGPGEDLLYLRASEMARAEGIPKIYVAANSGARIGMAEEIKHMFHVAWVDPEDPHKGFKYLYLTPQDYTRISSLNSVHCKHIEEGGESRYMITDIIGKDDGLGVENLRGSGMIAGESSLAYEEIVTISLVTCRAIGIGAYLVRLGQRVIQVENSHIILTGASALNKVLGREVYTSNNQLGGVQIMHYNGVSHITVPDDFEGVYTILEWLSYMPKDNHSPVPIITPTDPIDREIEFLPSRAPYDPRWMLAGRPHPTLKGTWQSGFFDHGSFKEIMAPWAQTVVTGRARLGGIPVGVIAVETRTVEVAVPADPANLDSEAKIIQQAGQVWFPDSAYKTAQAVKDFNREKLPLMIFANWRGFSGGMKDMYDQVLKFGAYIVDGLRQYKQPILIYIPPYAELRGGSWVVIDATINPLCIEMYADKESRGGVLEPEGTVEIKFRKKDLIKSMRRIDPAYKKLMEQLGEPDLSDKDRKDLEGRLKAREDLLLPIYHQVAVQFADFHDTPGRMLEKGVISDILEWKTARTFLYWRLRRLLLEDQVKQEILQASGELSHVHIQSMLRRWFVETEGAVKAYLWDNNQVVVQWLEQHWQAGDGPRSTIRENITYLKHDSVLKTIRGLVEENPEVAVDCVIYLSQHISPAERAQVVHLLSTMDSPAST
Method: The detailed procedure is as follows. […] 10 μL ADP glo reagent was added. […] 20 μL kinase detection reagent was added.

[3] = system: C. parapsilosis; test: Antifungal Activity Assay (broth microtiter MIC), C. parapsilosis; format: cell-based, Candida parapsilosis; conditions: Lodderomyces parapsilosis, ATCC22019, 48 h
How it was run: (§2)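 Susceptibility was determined by CLSI M27-A3 broth microdilution in RPMI 1640 buffered with MOPS. Growth inhibition was scored visually after 48 h.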

[4] = system: Fusarium moniliforme (Fm); test: Growth inhibition assay of fungal pathogens, Fm; format: cell-based; conditions: for Concentration at 90% Inhibition Fm: Fusarium moniliforme, growth inhibition at 48 hours vs 2% DMSO control; for IC90: Fusarium verticillioides, 48 h, read-out: Concentration at 90% Inhibition Fm
How it was run: as §1

[5] = system: Rhizoctonia solani (Rs); test: Growth inhibition assay of fungal pathogens, Rs; format: cell-based; conditions: 48 h
[6] = system: Diplodia maydis (Dm); test: Growth inhibition assay of fungal pathogens, Dm; format: cell-based; conditions: Stenocarpella maydis, 48 h, read-out: Concentration at 90% Inhibition Dm, Diplodia maydis
How it was run: as §1

[7] = system: Fusarium virguliforme (Fv); test: Growth inhibition assay of fungal pathogens, Fv; format: cell-based; conditions: 48 h
How it was run: as §1

[8] = system: C. albicans; test: Antifungal Activity Assay (broth microtiter MIC), C. albicans; format: cell-based, Candida albicans; conditions: Candida albicans, ATCC90028, 48 h
How it was run: as §2

[9] = system: Septoria tritici (St); test: Growth inhibition assay of fungal pathogens, St; format: cell-based; conditions: Zymoseptoria tritici, 48 h, read-out: Concentration at 90% Inhibition St, Septoria tritici
How it was run: as §1

[10] = growth inhibition at 48 hours vs 2% DMSO control
[11] = growth inhibition vs 2% DMSO control at 48 hours
[12] = read-out: MIC, C. parapsilosis ATCC 22019, Table 3a, 3 replicates, MIC recorded at 48 h
[13] = read-out: MIC, C. parapsilosis ATCC 22019, Table 3b (additional results), 3 replicates, MIC recorded at 48 h
[14] = read-out: Concentration at 90% Inhibition Rs, Rhizoctonia solani, mycelial plugs, growth inhibition at 48 hours vs 2% DMSO control
[15] = read-out: Concentration at 90% Inhibition Rs, Rhizoctonia solani, mycelial plugs, growth inhibition vs 2% DMSO control at 48 hours
[16] = read-out: Concentration at 90% Inhibition Fv, Fusarium virguliforme, growth inhibition at 48 hours vs 2% DMSO control
[17] = read-out: Concentration at 90% Inhibition Fv, Fusarium virguliforme, growth inhibition vs 2% DMSO control at 48 hours
[18] = read-out: MIC, C. albicans ATCC 90028, Table 3a, 3 replicates, MIC recorded at 48 h
[19] = read-out: MIC, C. albicans ATCC 90028, Table 3b (additional results), 3 replicates, MIC recorded at 48 h

COc1ccc(F)cc1[C@H](Cn1c(=O)n(C(C)(C)C(=O)N2CCOCC2)c(=O)c2c(C)c(-n3nccn3)sc21)OC(C)C [Compound I-5, (R)-1-(2-(5-fluoro-2-methoxyphenyl)-2-isopropoxyethyl)-5-methyl-3-(2-methyl-1-morpholino-1-oxopropan-2-yl)-6-(2H-1,2,3-triazol-2-yl)thieno[2,3-d]pyrimidine-2,4(1H,3H)-dione]
IC90 [1, 10]: 0.4 µg/mL (≈ 0.651 µM) | IC90 [1, 11]: 0.4 µg/mL (≈ 0.651 µM) | IC50 ([2]; Table 2a): 10 to 40 nM | IC50 ([2]; Table 2b, additional results): 10 to 40 nM | MIC [3, 12]: 2.1 to 4 µg/mL (≈ 3.42 to 6.51 µM) | MIC [3, 13]: > 4.01 µg/mL | Concentration at 90% Inhibition Fm [4]: AA (compound concentration of 0.08 ppm at 90% inhibition of fungal pathogens) | IC90 [4]: 0.08 µg/mL (≈ 0.13 µM) | IC90 [5, 14]: 0.4 µg/mL (≈ 0.651 µM) | IC90 [5, 15]: 0.4 µg/mL (≈ 0.651 µM) | IC90 [6, 10]: 2 µg/mL (≈ 3.25 µM) | IC90 [6, 11]: 2 µg/mL (≈ 3.25 µM) | IC90 [7, 16]: 0.4 µg/mL (≈ 0.651 µM) | IC90 [7, 17]: 0.4 µg/mL (≈ 0.651 µM) | MIC [8, 18]: 2.1 to 4 µg/mL (≈ 3.42 to 6.51 µM) | MIC [8, 19]: 2.01 to 4 µg/mL (≈ 3.27 to 6.51 µM) | IC90 [9, 10]: 10 µg/mL (≈ 16.3 µM) | IC90 [9, 11]: > 50 µg/mL

COc1ccc(F)cc1[C@H](Cn1c(=O)n(C(C)(C)C(=O)N2CCCCC2)c(=O)c2c(C)c(-n3nccn3)sc21)OC(C)C [Compound I-6, (R)-1-(2-(5-fluoro-2-methoxyphenyl)-2-isopropoxyethyl)-5-methyl-3-(2-methyl-1-oxo-1-(piperidin-1-yl)propan-2-yl)-6-(2H-1,2,3-triazol-2-yl)thieno[2,3-d]pyrimidine-2,4(1H,3H)-dione]
IC90 [1, 10]: 0.08 µg/mL (≈ 0.131 µM) | IC90 [1, 11]: 0.08 µg/mL (≈ 0.131 µM) | IC50 ([2]; Table 2a): 10 to 40 nM | IC50 ([2]; Table 2b, additional results): 10 to 40 nM | MIC [3, 12]: 1.1 to 2 µg/mL (≈ 1.8 to 3.26 µM) | MIC [3, 13]: 1.01 to 2 µg/mL (≈ 1.65 to 3.26 µM) | Concentration at 90% Inhibition Fm [4]: AA (compound concentration of 0.08 ppm at 90% inhibition of fungal pathogens) | IC90 [4]: 0.08 µg/mL (≈ 0.131 µM) | IC90 [5, 14]: 0.08 µg/mL (≈ 0.131 µM) | IC90 [5, 15]: 0.08 µg/mL (≈ 0.131 µM) | IC90 [6, 10]: 0.08 µg/mL (≈ 0.131 µM) | IC90 [6, 11]: 0.08 µg/mL (≈ 0.131 µM) | IC90 [7, 16]: 0.08 µg/mL (≈ 0.131 µM) | IC90 [7, 17]: 0.08 µg/mL (≈ 0.131 µM) | MIC [8, 18]: 0.25 to 1 µg/mL (≈ 0.408 to 1.63 µM) | MIC [8, 19]: 0.25 to 1 µg/mL (≈ 0.408 to 1.63 µM) | IC90 [9, 10]: 2 µg/mL (≈ 3.26 µM) | IC90 [9, 11]: 10 µg/mL (≈ 16.3 µM)
